In patent publication US20250368633A1, “AZEPINE FUSED RING COMPOUND AS RIPK1 INHIBITOR AND USE THEREOF” (ARTIVILA BIOPHARMA, priority 2022, published 2025):

Assays:
RIPK1 kinase = target: T1, RIPK1 kinase (Homo sapiens, UniProt Q13546); assay: In vitro RIPK1 kinase activity assay (ADP-Glo), inhibition by compounds at 1 μM; type: biochemical; details: compound 1 μM; ATP 10 μM; MBP substrate 100 μg/mL; read-out: RIPK1 kinase activity inhibition rate range
T1 construct: purchased Promega VA7593
T1 sequence (Q13546 1-671): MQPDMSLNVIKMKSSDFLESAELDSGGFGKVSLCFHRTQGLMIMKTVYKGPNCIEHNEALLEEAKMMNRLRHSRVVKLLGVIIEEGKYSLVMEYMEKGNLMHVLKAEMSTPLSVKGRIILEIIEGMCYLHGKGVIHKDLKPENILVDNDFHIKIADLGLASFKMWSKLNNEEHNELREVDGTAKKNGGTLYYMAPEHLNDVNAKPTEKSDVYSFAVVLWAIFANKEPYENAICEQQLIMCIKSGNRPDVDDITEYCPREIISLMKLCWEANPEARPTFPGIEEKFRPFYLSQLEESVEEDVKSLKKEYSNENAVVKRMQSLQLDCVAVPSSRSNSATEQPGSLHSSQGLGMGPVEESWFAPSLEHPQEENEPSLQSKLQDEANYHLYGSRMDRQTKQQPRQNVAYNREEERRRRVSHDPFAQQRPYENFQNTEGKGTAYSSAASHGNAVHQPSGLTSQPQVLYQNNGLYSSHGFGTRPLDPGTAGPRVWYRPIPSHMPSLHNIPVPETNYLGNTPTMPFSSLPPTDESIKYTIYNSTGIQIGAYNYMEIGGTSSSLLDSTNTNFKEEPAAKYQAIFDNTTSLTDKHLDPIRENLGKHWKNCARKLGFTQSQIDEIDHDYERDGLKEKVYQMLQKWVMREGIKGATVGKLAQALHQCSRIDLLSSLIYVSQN
In short: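 Compound and RIPK1 were preincubated 15 min at room temperature, then reacted 1 h with 10 μM ATP and 100 μg/mL MBP substrate in kinase buffer D. ADP formed was measured by ADP-Glo luminescence and converted to percent inhibition of kinase activity.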

U937 cells [1] = assay: Inhibition rate of compound (1 μM) on necroptosis of U937 cells (TSZ-induced, CellTiter-Glo); type: cell-based; details: TSZ (hTNF-α, SM-164, Z-VAD-FMK) 20 hours
In short: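 U937 cells were pretreated 15 min with compound, then necroptosis was triggered with TSZ (Z-VAD-FMK, hTNF-α, SM-164) for 20 h at 37° C. Viability was read as ATP by CellTiter-Glo luminescence, and inhibition (%) was taken relative to no-TSZ and TSZ-only wells.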

U937 cells [2] = assay: EC50 of necroptosis inhibition in U937 cells (TSZ-induced, CellTiter-Glo); type: cell-based; details: Homo sapiens, U-937; TSZ (hTNF-α, SM-164, Z-VAD-FMK) 20 hours; 10 concentration points; read-out: EC50 intervals of necroptosis inhibition in U937 cells
In short: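 U937 cells pretreated 15 min with compound (10-point, 1:3 series), then necroptosis induced by TSZ (hTNF-α, SM-164, Z-VAD-FMK) for 20 h at 37 °C. Viability measured as ATP by CellTiter-Glo luminescence; inhibition normalised to untreated and TSZ-only wells, EC50 from four-parameter fit.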

| SMILES | inhibition at 1 µM (RIPK1 kinase) [%] | Inhibition rate range of compounds (1 μM) on U937 cell necroptosis (U937 cells [1]) | EC50 (U937 cells [2]) [nM] |
| --- | --- | --- | --- |
| CN1C(=O)[C@@H](NC(=O)C(=O)NCc2ccccc2F)COc2ccc(C#CCCO)cc21 [Example 38, (S)—N^1-(2-fluorobenzyl)-N^2-(7-(4-hydroxybut-1-yn-1-yl)-5-methyl-4-oxo-2,3,4,5-tetrahydrobenzo[b][1,4]oxazepin-3-yl)oxalamide] | 50 to 74 | A (A: ≥90%) | 100 to 500 |
| C[C@H](O)C#Cc1ccc2c(c1)N(C)C(=O)[C@@H](NC(=O)C(=O)NCCc1ccccc1)CO2 [Example 30, N^1-((S)-7-((S)-3-hydroxybut-1-yn-1-yl)-5-methyl-4-oxo-2,3,4,5-tetrahydrobenzo[b][1,4]oxazepin-3-yl)-N^2-phenethyloxalamide] | 50 to 74 | A (A: ≥90%) | 100 to 500 |
| C=CC(=O)N1CC(C#Cc2ccc3c(c2)N(C)C(=O)[C@@H](NC(=O)C(=O)N[C@H](C)c2ccccc2)CO3)C1 [Example 149, N^1-((S)-7-((1-acryloylazetidin-3-yl)ethynyl)-5-methyl-4-oxo-2,3,4,5-tetrahydrobenzo[b][1,4]oxazepin-3-yl)-N^2-((R)-1-phenylethyl)oxalamide] | ≥ 75 | A (A: ≥90%) | < 100 |
| CN1C(=O)[C@@H](NC(=O)C(=O)NCCc2ccccc2)COc2ccc(C#Cc3cccs3)cc21 [Example 16, (S)—N^1-(5-methyl-4-oxo-7-(thiophen-2-ylethynyl)-2,3,4,5-tetrahydrobenzo[b][1,4]oxazepin-3-yl)-N^2-phenethyloxalamide] | 50 to 74 | A (A: ≥90%) | < 100 |
| CN1C(=O)[C@@H](NC(=O)C(=O)NCCc2ccccc2)COc2ccc(C#Cc3cncnc3)cc21 [Example 15, (S)—N^1-(5-methyl-4-oxo-7-(pyrimidin-5-ylethynyl)-2,3,4,5-tetrahydrobenzo[b][1,4]oxazepin-3-yl)-N^2-phenethyloxalamide] | ≥ 75 | A (A: ≥90%) | < 100 |
| C[C@@H](NC(=O)C(=O)N[C@H]1COc2ccc(C#CC3CCNCC3)cc2N(C)C1=O)c1ccccc1 [Example 135, N^1-((S)-5-methyl-4-oxo-7-(piperidin-4-ylethynyl)-2,3,4,5-tetrahydrobenzo[b][1,4]oxazepin-3-yl)-N^2-((R)-1-phenylethyl)oxalamide] | 25 to 49 | A (A: ≥90%) | < 100 |
| Cc1ncsc1-c1ccc(CNC(=O)[C@@H]2C[C@@H](O)CN2C(=O)[C@@H](NC(=O)COCCOCCN2CCC(C#Cc3ccc4c(c3)N(C)C(=O)[C@@H](NC(=O)C(=O)NCCc3ccccc3)CO4)CC2)C(C)(C)C)cc1 [Example 55, N^1-((S)-7-((1-(2-(2-(2-(((S)-1-((2S,4R)-4-hydroxy-2-((4-(4-methylthiazol-5-yl)benzyl)carbamoyl)pyrrolidin-1-yl)-3,3-dimethyl-1-oxobutan-2-yl)amino)-2-oxoethoxy)ethoxy)ethyl)piperidin-4-yl)ethynyl)-5-methyl-4-oxo-2,3,4,5-tetrahydrobenzo[b][1,4]oxazepin-3-yl)-N^2-phenethyloxalamide] | 50 to 74 | A (A: ≥90%) | < 100 |
| Cc1ccccc1CNC(=O)C(=O)N[C@H]1COc2ccc(C#CCN3CCNC(=O)C3)cc2N(C)C1=O [Example 108, (S)—N^1-(5-methyl-4-oxo-7-(3-(3-oxopiperazin-1-yl)prop-1-yn-1-yl)-2,3,4,5-tetrahydrobenzo[b][1, 4]oxazepin-3-yl)-N^2-(2-methylbenzyl)oxalamide] | ≥ 75 | A (A: ≥90%) | < 100 |
| CN1C(=O)[C@@H](NC(=O)C(=O)NCCc2ccccc2)COc2ccc(C#CCOc3ccccc3)cc21 [Example 28, (S)—N^1-(5-methyl-4-oxo-7-(3-phenyloxyprop-1-yn-1-yl)-2,3,4,5-tetrahydrobenzo[b][1,4]oxazepin-3-yl)-N^2-phenethyloxalamide] | ≥ 75 | A (A: ≥90%) | < 100 |
| C[C@@H](NC(=O)C(=O)N[C@H]1COc2ccc(C#CCN3CCNCC3)cc2N(C)C1=O)c1ccccc1 [Example 142, N^1-((S)-5-methyl-4-oxo-7-(3-(piperazin-1-yl)prop-1-yn-1-yl)-2,3,4,5-tetrahydrobenzo[b][1,4]oxazepin-3-yl)-N^2-((R)-1-phenylethyl)oxalamide] | ≥ 75 | A (A: ≥90%) | < 100 |
| CN1C(=O)[C@@H](NC(=O)C(=O)NCCc2ccccc2)COc2ccc(C#CCCC(=O)O)cc21 [Example 95, (S)-5-(5-methyl-4-oxo-3-(2-oxo-2-(phenethylamino)acetamido)-2,3,4,5-tetrahydrobenzo[b][1,4]oxazepin-7-yl) pent-4-ynoic acid] | ≥ 75 | B (B: 50-89%) | 500 to 2000 |

Now from value to compound, other results behind:

| inhibition at 1 µM (RIPK1 kinase) [%] | SMILES | Inhibition rate range of compounds (1 μM) on U937 cell necroptosis (U937 cells [1]) | EC50 (U937 cells [2]) [nM] |
| --- | --- | --- | --- |
| 25 to 49 | C[C@@H](NC(=O)C(=O)N[C@H]1CN(C)c2ccc(C#CCN3CCOCC3)cc2N(C)C1=O)c1ccccc1 [Example 166, N^1-((S)-1,5-dimethyl-8-(3-morpholinoprop-1-yn-1-yl)-2-oxo-2,3,4,5-tetrahydro-1H-benzo[b][1,4]diazepin-3-yl)-N^2-((R)-1-phenylethyl)oxalamide] | A (A: ≥90%) | < 100 |
| 25 to 49 | C[C@@H](NC(=O)C(=O)N[C@H]1COc2ccc(C#CC3CN(N=O)C3)cc2N(C)C1=O)c1ccccc1 [Example 151, N^1-((S)-5-methyl-7-((1-nitrosoazetidin-3-yl)ethynyl)-4-oxo-2,3,4,5-tetrahydrobenzo[b][1,4]oxazepin-3-yl)-N^2-((R)-1-phenylethyl)oxalamide] | A (A: ≥90%) | < 100 |
| 50 to 74 | C[C@@H](Cc1ccccc1)NC(=O)C(=O)N[C@H]1COc2ccc(C#CCCO)cc2N(C)C1=O [Example 152, N^1-((S)-7-(4-hydroxybut-1-yn-1-yl)-5-methyl-4-oxo-2,3,4,5-tetrahydrobenzo[b][1,4]oxazepin-3-yl)-N^2-((S)-1-phenylpropan-2-yl)oxalamide] | A (A: ≥90%) | 100 to 500 |
| ≥ 75 | Cc1ncsc1-c1ccc(CNC(=O)[C@@H]2C[C@@H](O)CN2C(=O)[C@@H](NC(=O)COCCOCCN2CCN(CC#Cc3ccc4c(c3)N(C)C(=O)[C@@H](NC(=O)C(=O)N[C@H](C)c3ccccc3)CO4)CC2)C(C)(C)C)cc1 [Example 162, N^1-((S)-7-(3-(4-(2-(2-(2-(((S)-1-((2S,4R)-4-hydroxy-2-((4-(4-methylthiazol-5-yl)benzyl)carbamoyl)pyrrolidin-1-yl)-3,3-dimethyl-1-oxobutan-2-yl)amino)-2-oxoethoxy)ethoxy)ethyl)piperazin-1-yl)prop-1-yn-1-yl)-5-methyl-4-oxo-2,3,4,5-tetrahydrobenzo[b][1,4]oxazepin-3-yl)-N^2-((R)-1-phenylethyl)oxalamide] | A (A: ≥90%) | 100 to 500 |
| ≥ 75 | C[C@@H](NC(=O)C(=O)N[C@H]1COc2ccc(C#CCN3CCN(CCOCCOCCOCCC(=O)Nc4cccc5c4CN(C4CCC(=O)NC4=O)C5=O)CC3)cc2N(C)C1=O)c1ccccc1 (mixture of isomers) [Example 164, N^1-((3S)-7-(3-(4-(2-(2-(2-(3-((2-(2,6-dioxopiperidin-3-yl)-1-oxoisoindolin-4-yl)amino)-3-oxopropoxy)ethoxy)ethoxy)ethyl)piperazin-1-yl)prop-1-yn-1-yl)-5-methyl-4-oxo-2,3,4,5-tetrahydrobenzo[b][1,4]oxazepin-3-yl)-N^2-((R)-1-phenylethyl)oxalamide] | A (A: ≥90%) | 100 to 500 |
